Experiment [1] relates to liver X receptors. The experiment in a line: Liver X receptor activity test, (subtype not named). The format is cell-based, human. To be noted: for inverse activation of liver X receptors (in words): summary of Table 1; for activation of liver X receptors (in words): summary of Table 2. On the procedure: (§1) (1) Cell culture: human embryonic kidney cells (HEK293T cells) were cultured in DMEM (high glucose) medium containing 10% fetal bovine serum and 1% penicillin-streptomycin under conditions of 37° C. and 5% CO2.
(§2) (2) Transfection: HEK293T cells were seeded in a 96-well plate with a cell density of 2×10^4 cells/well. After 24 hours, the cells were transfected according to instructions of Lipofectamine™ 3000 reagent. The specific steps of transfection were as follows: • (1) adding 15 μL of L3000 reagent to 500 μL of DMEM (high sugar) medium, and vortex oscillating for 2 seconds; • (2) mixing 6.5 μg of pGL3/(DR-4)-c-fos-FF-luc plasmid, 0.13 μg of pCMV/Renilla-luc plasmid, 1.3 μg of pSG5/hLXRα (or pSG5/hLXRβ plasmid), 1.3 μg of pSG5/hRXRα plasmid, and 19 μL of P3000 reagent in 500 μL of DMEM (high sugar) medium; • (3) adding the plasmid mixture to a liposome mixture and standing by at room temperature for 20 minutes; and • (4) adding 10 μL of liposome-DNA solution to each well of the 96-well plate, and gently shaking the 96-well plate to mix well.
(§3) (3) Drug intervention: after 5 hours of transfection, the compounds to be tested were added, and the plate was placed in an incubator to continue culturing for 20 hours.
(§4) (4) Detection: dual-luciferase reporter gene system was used for detection. The specific steps of detection were as follows: • (1) aspirating the original medium in the 96-well plate, adding cell lysate to the 96-well plate at 20 μL/well, and quickly shaking the plate at room temperature for 20 minutes; • (2) adding samples to a 384-well plate at 20 μL/well; • (3) adding firefly luciferase substrate to each well at 10 μL/well, and measuring chemiluminescence after 7 seconds; and • (4) adding Renilla luciferase substrate to the same sample well at 100 μL/well, and measuring chemiluminescence after 7 seconds.
(§5) Result processing: the results were analyzed using Renilla luciferase activity to correct the firefly luciferase activity.

The target in experiment [2] is T1, LXRα (Homo sapiens, UniProt Q13133).
T1 construct: expressed in transfected cells; host or cells: HEK293T
T1 sequence (Q13133 1-447): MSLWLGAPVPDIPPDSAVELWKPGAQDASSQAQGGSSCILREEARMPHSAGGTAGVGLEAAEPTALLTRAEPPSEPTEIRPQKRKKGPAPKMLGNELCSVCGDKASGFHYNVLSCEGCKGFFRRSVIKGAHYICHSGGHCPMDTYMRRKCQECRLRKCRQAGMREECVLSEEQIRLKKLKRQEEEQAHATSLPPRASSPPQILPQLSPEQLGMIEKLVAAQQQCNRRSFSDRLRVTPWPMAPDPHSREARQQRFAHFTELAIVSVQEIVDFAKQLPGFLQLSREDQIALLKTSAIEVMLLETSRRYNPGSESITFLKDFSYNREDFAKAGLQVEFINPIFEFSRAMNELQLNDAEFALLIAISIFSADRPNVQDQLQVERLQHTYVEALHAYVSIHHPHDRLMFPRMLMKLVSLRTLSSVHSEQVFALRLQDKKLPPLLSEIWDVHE
T1 sequence (P19793 1-462 partner): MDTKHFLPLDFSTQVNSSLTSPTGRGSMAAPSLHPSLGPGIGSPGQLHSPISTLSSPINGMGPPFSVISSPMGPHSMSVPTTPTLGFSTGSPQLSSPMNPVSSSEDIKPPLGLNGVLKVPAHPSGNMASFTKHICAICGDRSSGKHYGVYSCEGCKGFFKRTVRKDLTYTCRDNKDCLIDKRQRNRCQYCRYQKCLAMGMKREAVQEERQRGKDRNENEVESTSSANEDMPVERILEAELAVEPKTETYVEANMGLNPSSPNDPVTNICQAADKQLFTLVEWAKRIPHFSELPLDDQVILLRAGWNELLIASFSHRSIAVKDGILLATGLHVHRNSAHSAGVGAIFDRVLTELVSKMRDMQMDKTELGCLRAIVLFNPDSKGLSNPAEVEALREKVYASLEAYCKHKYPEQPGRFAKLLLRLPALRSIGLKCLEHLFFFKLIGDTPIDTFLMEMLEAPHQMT
The experiment in a line: Liver X receptor activity test, dual-luciferase reporter gene in HEK293T cells (pSG5/hLXRα + hRXRα). The format is cell-based. The settings on record: for EC50 / LXRα % Agonist effect: agonist activity. On the procedure: as §1, §2, §3, §4, §5
On the technique in general: A reporter such as luciferase makes a cellular process visible.

The target of experiment [3] is T2, LXRβ (Homo sapiens, UniProt P55055).
T2 construct: expressed in transfected cells; host or cells: HEK293T
T2 sequence (P55055 1-460): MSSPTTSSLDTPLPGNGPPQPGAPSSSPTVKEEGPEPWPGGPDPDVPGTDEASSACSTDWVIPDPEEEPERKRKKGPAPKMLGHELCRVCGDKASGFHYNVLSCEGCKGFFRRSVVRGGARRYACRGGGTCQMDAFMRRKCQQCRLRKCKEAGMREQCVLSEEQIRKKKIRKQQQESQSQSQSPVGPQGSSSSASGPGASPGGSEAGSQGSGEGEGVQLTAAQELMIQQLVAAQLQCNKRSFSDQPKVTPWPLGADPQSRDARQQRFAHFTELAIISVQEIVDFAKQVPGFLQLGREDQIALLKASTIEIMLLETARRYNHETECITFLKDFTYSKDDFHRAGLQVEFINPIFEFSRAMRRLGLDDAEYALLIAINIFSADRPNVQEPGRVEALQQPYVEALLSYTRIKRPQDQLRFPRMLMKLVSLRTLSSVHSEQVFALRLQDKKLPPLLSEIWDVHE
T2 sequence (P19793 1-462 partner): T1 sequence (P19793 1-462 partner)
The experiment in a line: Liver X receptor activity test, dual-luciferase reporter gene in HEK293T cells (pSG5/hLXRβ + hRXRα). The format is cell-based. On the procedure: as §1, §2, §3, §4, §5

[4] abbreviates: agonist activity, HEK293T reporter gene.
The mark [5] stands for this setting: inverse agonist activity, HEK293T reporter gene.

Read-outs that look alike come from different tables or passages of the source.

The values below come from US12415810B2, “2'-isopropyl-spiro (3,3'-pyrrolidine oxindole) liver X receptor regulator, preparation method therefor, and use thereof” (SHENZHEN CELL INSPIRE PHARMACEUTICAL DEVELOPMENT CO., LTD., priority 2019, dated 2025).

Regarding `CC(C)[C@@H]1N(C(=O)OC(C)(C)C)CC[C@@]12C(=O)N(c1cccc(-c3ccc(CO)c(S(C)(=O)=O)c3)c1)c1ccccc12` [Compound 2a-2], the “inverse activation of liver X receptors (in words)” value (from here on “inverse activation”) in experiment [1] was “can inversely activate liver X receptors”.

Take `CC(C)[C@@H]1N(C(=O)OC(C)(C)C)CC[C@@]12C(=O)N(c1cccc(-c3ccc(CO)c(S(C)(=O)=O)c3)c1)c1ccccc12` [Compound 2a]: in experiment [1], the “inverse activation” value is listed as “can inversely activate liver X receptors”.

`CC(C)[C@@H]1N(C(=O)C(F)(F)F)CC[C@@]12C(=O)N(c1cccc(-c3ccc(CO)c(S(C)(=O)=O)c3)c1)c1ccccc12` [Compound 2b]: the “inverse activation” value in experiment [1] was “can inversely activate liver X receptors”.

`CC(C)[C@@H]1N(C(=O)CC(C)(C)C)CC[C@@]12C(=O)N(c1cccc(-c3ccc(CO)c(S(C)(=O)=O)c3)c1)c1ccccc12` [Compound 2c]: the “inverse activation” value in experiment [1] is reported as “can inversely activate liver X receptors”.

For `CC(C)[C@@H]1N(C(=O)C(C)(C)C)CC[C@@]12C(=O)N(c1cccc(-c3ccc(CO)c(S(C)(=O)=O)c3)c1)c1ccccc12` [Compound 2d], the “inverse activation” value in experiment [1] was “can inversely activate liver X receptors”.

In the case of `CC(C)[C@@H]1N(C(=O)OC(C)(C)C)CC[C@@]12C(=O)N(c1cccc(-c3ccc(C(=O)N(C)C)c(Cl)c3)c1)c1ccccc12` [Compound 3a], in experiment [2], the EC50 was found to be 6.92 µM and the “LXRα % Agonist effect” value stood at 53%. Besides, the “activation of liver X receptors (in words)” value in experiment [1] is “can activate liver X receptors”.

In the case of `CC(C)[C@@H]1N(C(=O)C(C)(C)C)CC[C@@]12C(=O)N(c1cccc(-c3ccc(C(=O)N(C)C)c(Cl)c3)c1)c1ccccc12` [Compound 3b], in experiment [2], the EC50 is 3.67 µM and the “LXRα % Agonist effect” value turned out to be 76%. In experiment [3] (setting [4]), the EC50 turned out to be 3040 nM and the “LXRβ % Agonist effect” value was found to be 50%. The “activation of liver X receptors (in words)” value in experiment [1] is “can activate liver X receptors”.

For the compound `CC(C)[C@@H]1N(C(=S)NC(C)(C)C)CC[C@@]12C(=O)N(c1cccc(-c3ccc(C(=O)N(C)C)c(Cl)c3)c1)c1ccccc12` [Compound 3c], the “activation of liver X receptors (in words)” value in experiment [1] is given as “can activate liver X receptors”.

Regarding `CC(C)[C@@H]1N(C(=O)CC(C)(C)C)CC[C@@]12C(=O)N(c1cccc(-c3ccc4ccn(C)c4c3)c1)c1ccccc12` [Compound 4c], in experiment [3] (HEK-293T, 20 h, inverse agonist activity, HEK293T reporter gene, read-out: LXRβ % Inverse agonist effect), the Emax is 64%. In experiment [3] (setting [5]), the IC50 is 10.1 µM.

Consider `O=C(O)Cc1cccc(OCCCN(Cc2cccc(C(F)(F)F)c2Cl)CC(c2ccccc2)c2ccccc2)c1` [GW3965, reference compound], for which the EC50 in experiment [2] came out at 0.36 µM; in experiment [3] (setting [4]), 210 nM. The “LXRα % Agonist effect” value in experiment [2] is on record as 100%. In experiment [3], the “LXRβ % Agonist effect” value worked out at 100%.

In the case of `CCOC(=O)c1ccc(CN(Cc2ccc(-c3cccc(S(C)(=O)=O)c3)cc2)S(=O)(=O)c2c(C)cc(C)cc2C)o1` [SR9238, reference compound], in experiment [2] (inverse agonist activity), the IC50 was found to be 160 nM and the “LXRα % Inverse agonist effect” value is 93%. Also, in experiment [3] (setting [5]), the IC50 is 0.1 µM.

In general, EC50 refers to the midpoint of the concentration-response curve. As a reminder, the IC50 is the concentration that gives 50% inhibition.
